Measured values reported in ChEMBL document CHEMBL5046288, “Design, Synthesis, and Bioevaluation of 2-Aminopteridin-7(8H)-one Derivatives as Novel Potent Adenosine A2A Receptor Antagonists for Cancer Immunotherapy” (J Med Chem, 2022).
Activity calls are given as the source filed them. The calls are words filed in the database; no cut-off is given here.

Experiments:
[1] = target: T1, Adenosine receptor A2a (Homo sapiens, UniProt P29274); assay: Antagonist activity at human A2aR expressed in HEK293 cells assessed as reduction in cAMP production incubated for 60 mins by ultra LANCE cAMP detection assay; format: functional, cell-based
T1 sequence (P29274 whole entry): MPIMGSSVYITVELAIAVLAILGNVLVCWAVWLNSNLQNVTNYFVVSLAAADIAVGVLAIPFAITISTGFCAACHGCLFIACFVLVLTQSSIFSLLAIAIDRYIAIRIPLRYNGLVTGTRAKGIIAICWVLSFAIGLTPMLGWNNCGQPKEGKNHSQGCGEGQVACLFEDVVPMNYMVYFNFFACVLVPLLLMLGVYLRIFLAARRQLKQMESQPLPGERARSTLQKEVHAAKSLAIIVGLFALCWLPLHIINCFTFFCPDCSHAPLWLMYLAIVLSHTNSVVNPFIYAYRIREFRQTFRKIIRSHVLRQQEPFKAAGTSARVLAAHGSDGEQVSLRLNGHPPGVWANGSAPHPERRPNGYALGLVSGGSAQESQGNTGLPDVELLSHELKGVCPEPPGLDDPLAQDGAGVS

[2] = Upregulation of NECA-suppressed IL-2 protein level in Ion/PMA-activated human Jurkat T cells at 10 uM by Western blotting analysis; format: functional
[3] = target: T1, Adenosine receptor A2a; assay: Antagonist activity at human A2aR expressed in HEK293 cells assessed as reduction in NECA-induced cAMP production incubated for 20 mins in presence of 20 nM NECA by GloSensor cAMP detection assay; format: functional, cell-based
[4] = species: Homo sapiens; assay: Selectivity ratio of IC50 for human A1R to IC50 for human A2aR
[5] = species: Homo sapiens; assay: Selectivity ratio of IC50 for human A2BR to IC50 for human A2aR
[6] = species: Homo sapiens; assay: Selectivity ratio of IC50 for human A3R to IC50 for human A2aR
[7] = target: T1, Adenosine receptor A2a; assay: Antagonist activity at human A2aR expressed in HEK293 cells assessed as reduction in NECA-induced cAMP production incubated for 20 mins in presence of 40 nM NECA by ultra LANCE cAMP detection assay; format: functional, cell-based
[8] = target: T1, Adenosine receptor A2a; assay: Antagonist activity at human A2aR expressed in HEK293 cells assessed as reduction in NECA-induced cAMP production incubated for 20 mins in presence of 1 uM NECA by ultra LANCE cAMP detection assay; format: functional, cell-based
[9] = test system: Jurkat; assay: Upregulation of NECA-suppressed IL-2 mRNA level in Ion/PMA-activated human Jurkat T cells at 10 uM by Q-PCR analysis; format: functional, cell-based
[10] = Metabolic stability in mouse liver microsomes assessed as half life at […] measured up to 60 mins in presence of NADPH by HPLC-MS/MS analysis; format: ADME, Microsome
[11] = test system: HCT-116; assay: Cytotoxicity against human HCT-116 cells co-cultured with Ion/PMA-activated human Jurkat T cells assessed as reversal of NECA-induced suppression of cytotoxic function of Jurkat T cell by measuring survival rate at E:T ratio of 6:1 at 10 uM measured after 48 hrs by crystal violet staining based colony assay; format: functional
[12] = test system: HCT-116; assay: Cytotoxicity against human HCT116 cells assessed as reduction in cell viability incubated for 24 hrs by MTS assay; format: toxicity, cell-based; details: hct-116, 24 h
[13] = test system: MC-38; assay: Cytotoxicity against mouse MC38 cells assessed as reduction in cell viability incubated for 24 hrs by MTS assay; format: toxicity, cell-based; details: mc-38, 24 h

IC50 [1] [nM]	SMILES	also measured
8.5	Cc1ccc(-c2nc(N)nc3c2ncc(=O)n3CCN2CCN(c3ccc(F)cc3F)CC2)o1	
2020	COc1ccc(N2C[C@H](C)N(CCn3c(=O)cnc4c(-c5ccc(C)o5)nc(N)nc43)C[C@H]2C)cc1	
23.8	COCCOc1ccc(N2CCN(CCn3c(=O)cnc4c(-c5ccc(C)o5)nc(N)nc43)CC2)cc1	
21	Cc1ccc(-c2nc(N)nc3c2ncc(=O)n3CCN2CCN(c3ccc(OC(F)F)cc3F)CC2)o1	
> 10000	COc1ccc(N(C)C2CCN(CCn3c(=O)cnc4c(-c5ccc(C)o5)nc(N)nc43)C2)cc1 (centres undefined)	
605	Cc1ccc(-c2nc(N)nc3c2ncc(=O)n3CCN2CCN(c3ccc(Oc4ccccc4)cc3)CC2)o1	
> 10000	Cc1ccc(-c2nc(N)nc3c2NC(=O)CN3Cc2ccccc2)o1	
5.5	COc1cnc(N2CCN(CCn3c(=O)cnc4c(-c5ccc(C)o5)nc(N)nc43)CC2)c(F)c1	
716	COc1ccc(N2CCCN(CCn3c(=O)cnc4c(-c5ccc(C)o5)nc(N)nc43)CC2)cc1	
2830	Cc1ccc(-c2nc(N)nc3c2n(C)c(=O)n3Cc2ccccc2)o1	
8.3	COc1ccc(N2CCN(CCn3c(=O)cnc4c(-c5ccc(C)o5)nc(N)nc43)[C@@H](C)C2)c(F)c1	fold change (FC) [2]: 3.77; IC50 [3]: 6.6 nM; Ratio IC50 [4]: > 1000; Ratio IC50 [5]: > 1000; Ratio IC50 [6]: > 1000; IC50 [7]: 8.3 nM; IC50 [8]: 180 nM; Activity [9]: inactive; half-life [10]: 38.5 min; Activity [11]: 48.6%; Activity [12]: Non-Toxic; Activity [13]: Non-Toxic
476	COc1cccc(Cn2c(=O)cnc3c(-c4ccc(C)o4)nc(N)nc32)c1	
555	COc1ccc(N2CC3CCC(C2)N3CCn2c(=O)cnc3c(-c4ccc(C)o4)nc(N)nc32)cc1	
63.7	Cc1ccc(-c2nc(N)nc3c2ncc(=O)n3CCN2CCN(c3ccc(OC(F)F)cc3)CC2)o1	
1010	Cc1ccc(-c2nc(N)nc3c2ncc(=O)n3CC2CC2)o1	
58.8	Cc1ccc(-c2nc(N)nc3c2ncc(=O)n3CCN2CCN(c3ccc(F)cc3)CC2)o1	
57.5	Cc1ccc(-c2nc(N)nc3c2ncc(=O)n3CCN2CCN(c3cccc(F)c3)CC2)o1	
980	Cc1ccc(-c2nc(N)nc3c2ncc(=O)n3CCCCc2ccccc2)o1	
388	Cc1ccc(-c2nc(N)nc3c2ncc(=O)n3CCN2CCC(c3ccccc3)CC2)o1	
1880	Cc1ccc(-c2nc(N)nc3c2ncc(=O)n3CC2CCCCC2)o1	
4.9	COc1ccc(N2CCN(CCn3c(=O)cnc4c(-c5ccc(C)o5)nc(N)nc43)CC2)c(F)c1	half-life [10]: 5.1 min
2170	Cc1ccc(-c2nc(N)nc3c2ncc(=O)n3Cc2ccco2)o1	
29.5	COc1ccc(N2CCN(CCn3c(=O)cnc4c(-c5ccc(C)o5)nc(N)nc43)CC2)cn1	

IC50 [1] [nM]	SMILES	also measured
120	Cc1ccc(-c2nc(N)nc3c2ncc(=O)n3CCN2CCN(c3ccc(OC(F)(F)F)cc3)CC2)o1	
> 10000	COc1ccc(N2C[C@@H]3C[C@H]2CN3CCn2c(=O)cnc3c(-c4ccc(C)o4)nc(N)nc32)cc1	
712	Cc1ccc(-c2nc(N)nc3c2ncc(=O)n3CCCc2ccccc2)o1	
37.5	COc1ccc(N2CCN(CCn3c(=O)cnc4c(-c5ccc(C)o5)nc(N)nc43)C[C@H]2C)cc1	
> 10000	Cc1ccc(-c2nc(N)nc3c2CCN(Cc2ccccc2)C3)o1	
> 10000	Cc1ccc(-c2nc(N)nc3c2ncc(=O)n3CCN2CCN(c3ccccc3OC(F)(F)F)CC2)o1	
> 10000	Cc1ccc(-c2nc(N)nc3c2ncc(=O)n3CCN2CCN(c3cccc(OC(F)(F)F)c3)CC2)o1	
> 10000	Cc1ccc(-c2nc(N)nc3c2ncc(=O)n3CC2CCN(c3ccccc3)CC2)o1	
3810	COc1ccccc1N1CCN(CCn2c(=O)cnc3c(-c4ccc(C)o4)nc(N)nc32)CC1	
> 10000	COc1ccc(Cn2c(=O)cnc3c(-c4ccc(C)o4)nc(N)nc32)cc1	
9.3	COCCOc1ccc(N2CCN(CCn3c(=O)cnc4c(-c5ccc(C)o5)nc(N)nc43)CC2)c(F)c1F	
11.7	Cc1ccc(-c2nc(N)nc3c2ncc(=O)n3CCN2CCN(c3ccccc3F)CC2)o1	
176	Cc1ccc(-c2nc(N)nc3c2ncc(=O)n3CCN2CCN(c3ccc(C(F)(F)F)cc3)CC2)o1	
224	COc1ccc(N2CCN(CCn3c(=O)cnc4c(-c5ccc(C)o5)nc(N)nc43)C[C@@H]2C)cc1	
> 10000	Cc1ccc(-c2nc(N)nc3c2ncc(=O)n3CCN2CCN(C)CC2)o1	
> 10000	Cc1ccc(-c2nc(N)nc3c2ncc(=O)n3Cc2cccc(C(F)(F)F)c2)o1	
86.5	Cc1ccc(-c2nc(N)nc3c2ncc(=O)n3CCN2CCN(c3ccc(F)cc3Cl)CC2)o1	
> 10000	Cc1ccc(-c2nc(N)nc3c2ncc(=O)n3CCN2CCN(C3CCCC3)CC2)o1	
482	Cc1ccc(-c2nc(N)nc3c2ncc(=O)n3Cc2ccccc2)o1	
213	COc1ccc(N2CCN(CCn3c(=O)cnc4c(-c5ccc(C)o5)nc(N)nc43)CC2)nc1	
1030	Cc1ccc(-c2nc(N)nc3c2[nH]c(=O)n3Cc2ccccc2)o1	
> 10000	COc1ccc(N(C)C2CN(CCn3c(=O)cnc4c(-c5ccc(C)o5)nc(N)nc43)C2)cc1	
> 10000	COc1ccc(N2CCC(N(C)CCn3c(=O)cnc4c(-c5ccc(C)o5)nc(N)nc43)C2)cc1 (centres undefined)	
